Earlier results in patent US20130281390A1, “METHOD FOR TREATING DRY EYE” (priority 2010, published 2013).

Test system: subjects with meibomian gland dysfunction
Conditions: daily topical administration to the ocular surface

CC[C@H]1OC(=O)[C@H](C)[C@@H](O[C@H]2C[C@@](C)(OC)[C@@H](O)[C@H](C)O2)[C@H](C)[C@@H](O[C@@H]2O[C@H](C)C[C@H](N(C)C)[C@H]2O)[C@](C)(O)C[C@@H](C)CN(C)[C@H](C)[C@@H](O)[C@]1(C)O [azithromycin]
physicochemical properties of the meibum: improved the physicochemical properties of the meibum towards that of normal subjects
